# Measured values from paper PMC8318231, “Rate-of-Kill (RoK) assays to triage large compound sets for Chagas disease drug discovery: Application to GSK Chagas Box” (PLoS Neglected Tropical Diseases, 2021).
# Experiments:
# [1] = test system: T. cruzi intracellular amastigotes in H9c2 cells; experiment: Rate-of-Kill (RoK) high-content imaging assay, amastigotes per cell (AM/CELL) and curve descriptors; type: cell-based, Trypanosoma cruzi; parameters: key to ME_24h / ME_48h / ME_72h: % reduction in parasite burden (cidal response); t50pct_MCC50 / t50pct_Cmax: unit not given here; details: for ME_24h: 24h; for ME_48h: 48h; for ME_72h: 72h; for tlag_Cmax / t50pct_Cmax / t50%_Cmax: at Cmax; for ME_24h (%): maximum effect at 24 h; for ME_24h (%) / ME_48h (%) / ME_72h (%): RoK assay; for ME_48h (%): maximum effect at 48 h; for ME_72h (%): maximum effect at 72 h; for ME 24h (maximum effect at 24 hours, intracellular amastigotes): maximum percentage of parasite burden reduction reached by any concentration
# Method in brief: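 H9c2 cardiomyocytes infected with T. cruzi trypomastigotes (MOI 8, 18 h), then compounds tested at 5 μM single shot or 11-point 1/3 dilution from 50 μM. DRAQ5-stained nuclei imaged over a time course. Amastigotes per cell normalised to infected cells at 4 h (0%) and non-infected cells (100%).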
# TcCYP51 = details: formerly reported; cited from earlier work
smiles,measurement,setting,value
CC(=O)Nc1nc(-c2cc(C)ccc2C)c(C)s1 [TCMDC-143207],ME_24h,[1]; figure 5,9.377
same,ME_48h,[1]; figure 5,15.7339
same,ME_72h,[1]; figure 5,56.2605
same,MCC50,[1]; RoK curve descriptor,5.6 µM
same,MCCE,[1]; RoK curve descriptor,0.2 µM
same,AM/CELL NORM,"[1]; Time 4, sheet figure 4 A",-2.089
same,AM/CELL NORM,"[1]; Time 24, sheet figure 4 A",9.377
same,AM/CELL NORM,"[1]; Time 48, sheet figure 4 A",6.875
same,AM/CELL NORM,"[1]; Time 72, sheet figure 4 A",36.4934
same,tlag_Cmax,[1],4.0 h
same,t50pct_Cmax,[1]; figure 5,72
same,tlag_Cmax,[1]; figure 5,4
same,t50%_MCC50,[1]; at MCC50,72.0 h
same,tlag_MCC50,[1]; at MCC50,4.0 h
same,t50pct_MCC50,"[1]; at MCC50, figure 5",72
same,tlag_MCC50,"[1]; at MCC50, figure 5",4
same,MCCE,[1]; figure 5,0.2058
same,MCC50,"[1]; figure 5, in µM",5.556
same,ME_24h (%),[1],9.4%
same,ME_48h (%),[1],15.7%
same,ME_72h (%),[1],56.3%
same,"ME 24h (maximum effect at 24 hours, intracellular amastigotes)",[1],9.377%
same,CYP51 pIC50,TcCYP51,< 4
O=C(NCCc1cccnc1)c1csc(-c2ccccc2)n1 [TCMDC-143203],ME_24h,[1]; figure 5,-222.428
same,ME_48h,[1]; figure 5,-89.2348
same,ME_72h,[1]; figure 5,54.0545
same,MCC50,[1]; RoK curve descriptor,5.6 µM
same,MCCE,[1]; RoK curve descriptor,0.6 µM
same,AM/CELL NORM,"[1]; Time 4, sheet figure 4 A",2.597
same,AM/CELL NORM,"[1]; Time 24, sheet figure 4 A",-179.486
same,AM/CELL NORM,"[1]; Time 48, sheet figure 4 A",-77.3027
same,AM/CELL NORM,"[1]; Time 72, sheet figure 4 A",80.8727
same,t50%_Cmax,[1],72.0 h
same,tlag_Cmax,[1],24.0 h
same,t50pct_Cmax,[1]; figure 5,72
same,tlag_Cmax,[1]; figure 5,24
same,t50%_MCC50,[1]; at MCC50,72.0 h
same,tlag_MCC50,[1]; at MCC50,24.0 h
same,t50pct_MCC50,"[1]; at MCC50, figure 5",72
same,tlag_MCC50,"[1]; at MCC50, figure 5",48
same,MCCE,[1]; figure 5,0.6173
same,MCC50,"[1]; figure 5, in µM",27.7778
same,ME_24h (%),[1],-222.4%
same,ME_48h (%),[1],-89.2%
same,ME_72h (%),[1],54.1%
same,"ME 24h (maximum effect at 24 hours, intracellular amastigotes)",[1],-177.566%
same,CYP51 pIC50,TcCYP51,7.2
COc1ccc(C(C)N(C)c2ncc3c(N)nc(N)nc3n2)cc1F (centres unmarked) [TCMDC-143298],MCC and MCCE values (in words),[1],low MCC and MCCE values
same,ME (maximum effect) in RoK assay (in words),[1],high ME value
same,tlag times,[1],4 h
same,ME_24h,[1]; figure 5,43.2682
same,ME_48h,[1]; figure 5,65.4547
same,ME_72h,[1]; figure 5,72.4604
same,MCC50,[1]; RoK curve descriptor,1.4 µM
same,MCCE,[1]; RoK curve descriptor,0.16 µM
same,AM/CELL NORM,"[1]; Time 4, sheet figure 4 A",12.1557
same,AM/CELL NORM,"[1]; Time 24, sheet figure 4 A",34.3534
same,AM/CELL NORM,"[1]; Time 48, sheet figure 4 A",59.1852
same,AM/CELL NORM,"[1]; Time 72, sheet figure 4 A",72.1771
same,t50%_Cmax,[1],64.0 h
same,tlag_Cmax,[1],4.0 h
same,t50pct_Cmax,[1]; figure 5,64
same,tlag_Cmax,[1]; figure 5,4
same,t50%_MCC50,[1]; at MCC50,56.0 h
same,tlag_MCC50,[1]; at MCC50,4.0 h
same,t50pct_MCC50,"[1]; at MCC50, figure 5",56
same,tlag_MCC50,"[1]; at MCC50, figure 5",4
same,MCC50,[1]; figure 5,1.44 µM
same,MCCE,[1]; figure 5,0.16
same,ME_24h (%),[1],43.3%
same,ME_48h (%),[1],65.5%
same,ME_72h (%),[1],72.5%
same,"ME 24h (maximum effect at 24 hours, intracellular amastigotes)",[1],45.8485%
same,CYP51 pIC50,TcCYP51,< 4
O=C(O)C(F)(F)F.O=c1ccc2ccc(F)c3c2n1C[C@H]3CN1CCC(NCc2cc3ccccc3o2)CC1 [TCMDC-143301],ME_24h,[1]; figure 5,26.9481
same,ME_48h,[1]; figure 5,43.1407
same,ME_72h,[1]; figure 5,49.4796
same,MCCE,[1]; RoK curve descriptor,0.2 µM
same,AM/CELL NORM,"[1]; Time 4, sheet figure 4 A",0.9981
same,AM/CELL NORM,"[1]; Time 24, sheet figure 4 A",26.9481
same,AM/CELL NORM,"[1]; Time 48, sheet figure 4 A",43.1407
same,AM/CELL NORM,"[1]; Time 72, sheet figure 4 A",49.4796
same,tlag_Cmax,[1],4.0 h
same,t50pct_Cmax,[1]; figure 5,72
same,tlag_Cmax,[1]; figure 5,4
same,t50pct_MCC50,"[1]; at MCC50, figure 5",72
same,tlag_MCC50,"[1]; at MCC50, figure 5",72
same,MCC50,[1]; figure 5,50 µM
same,MCCE,[1]; figure 5,0.2058
same,ME_24h (%),[1],27.0%
same,ME_48h (%),[1],43.1%
same,ME_72h (%),[1],49.5%
same,"ME 24h (maximum effect at 24 hours, intracellular amastigotes)",[1],26.9481%
same,CYP51 pIC50,TcCYP51,4.5
Cc1c(C(=O)NCCCCn2ccnc2)oc2c(C)cccc12 [TCMDC-143304],ME_24h,[1]; figure 5,-97.6451
same,ME_48h,[1]; figure 5,-43.6144
same,ME_72h,[1]; figure 5,81.5916
same,MCC50,[1]; RoK curve descriptor,1.9 µM
same,MCCE,[1]; RoK curve descriptor,0.6 µM
same,AM/CELL NORM,"[1]; Time 4, sheet figure 4 A",-4.678
same,AM/CELL NORM,"[1]; Time 24, sheet figure 4 A",-97.6451
same,AM/CELL NORM,"[1]; Time 48, sheet figure 4 A",-43.6144
same,AM/CELL NORM,"[1]; Time 72, sheet figure 4 A",60.7007
same,t50%_Cmax,[1],72.0 h
same,tlag_Cmax,[1],24.0 h
same,t50pct_Cmax,[1]; figure 5,72
same,tlag_Cmax,[1]; figure 5,24
same,t50%_MCC50,[1]; at MCC50,72.0 h
same,tlag_MCC50,[1]; at MCC50,48.0 h
same,t50pct_MCC50,"[1]; at MCC50, figure 5",72
same,tlag_MCC50,"[1]; at MCC50, figure 5",48
same,MCCE,[1]; figure 5,0.6173
same,MCC50,"[1]; figure 5, in µM",1.852
same,ME_24h (%),[1],-97.7%
same,ME_48h (%),[1],-43.6%
same,ME_72h (%),[1],81.6%
same,"ME 24h (maximum effect at 24 hours, intracellular amastigotes)",[1],-97.6451%
same,CYP51 pIC50,TcCYP51,7
O=C(NCC1CCCCC1)c1cc(=O)c2ccccc2o1 [TCMDC-123621],ME_24h,[1]; figure 5,36.8077
same,ME_48h,[1]; figure 5,33.2383
same,ME_72h,[1]; figure 5,64.4668
same,MCC50,[1]; RoK curve descriptor,5.6 µM
same,MCCE,[1]; RoK curve descriptor,0.6 µM
same,AM/CELL NORM,"[1]; Time 4, figure 4 A",-5.701
same,AM/CELL NORM,"[1]; Time 24, figure 4 A",30.3317
same,AM/CELL NORM,"[1]; Time 48, figure 4 A",33.2183
same,AM/CELL NORM,"[1]; Time 72, figure 4 A",64.4668
same,t50%_Cmax,[1],72.0 h
same,tlag_Cmax,[1],4.0 h
same,t50pct_Cmax,[1]; figure 5,72
same,tlag_Cmax,[1]; figure 5,4
same,t50%_MCC50,[1]; at MCC50,72.0 h
same,tlag_MCC50,[1]; at MCC50,4.0 h
same,t50pct_MCC50,"[1]; at MCC50, figure 5",72
same,tlag_MCC50,"[1]; at MCC50, figure 5",4
same,MCCE,[1]; figure 5,0.6173
same,MCC50,"[1]; figure 5, in µM",5.556
same,ME_24h (%),[1],36.8%
same,ME_48h (%),[1],33.2%
same,ME_72h (%),[1],64.5%
same,"ME 24h (maximum effect at 24 hours, intracellular amastigotes)",[1],36.8077%
same,CYP51 pIC50,TcCYP51,< 4
CS(=O)(=O)NC1CCC(Oc2cc3cnccc3cc2-c2ccsc2)CC1.O=C(O)C(F)(F)F (centres unmarked) [TCMDC-143302],ME_24h,[1]; figure 5,1.036
same,ME_48h,[1]; figure 5,27.0388
same,ME_72h,[1]; figure 5,21.5908
same,MCCE,[1]; RoK curve descriptor,0.6 µM
same,AM/CELL NORM,"[1]; Time 4, sheet figure 4 A",-2.284
same,AM/CELL NORM,"[1]; Time 24, sheet figure 4 A",1.036
same,AM/CELL NORM,"[1]; Time 48, sheet figure 4 A",27.0388
same,AM/CELL NORM,"[1]; Time 72, sheet figure 4 A",-4.309
same,tlag_Cmax,[1],4.0 h
same,t50pct_Cmax,[1]; figure 5,72
same,tlag_Cmax,[1]; figure 5,4
same,t50pct_MCC50,"[1]; at MCC50, figure 5",72
same,tlag_MCC50,"[1]; at MCC50, figure 5",72
same,MCC50,[1]; figure 5,50 µM
same,MCCE,[1]; figure 5,0.6173
same,ME_24h (%),[1],1.0%
same,ME_48h (%),[1],27.0%
same,ME_72h (%),[1],21.6%
same,"ME 24h (maximum effect at 24 hours, intracellular amastigotes)",[1],1.036%
same,CYP51 pIC50,TcCYP51,7.6
COc1ccc(C(C)(C)C)cc1S(=O)(=O)n1ccnc1 [TCMDC-143275],ME_24h,[1]; figure 5,-36.0217
same,ME_48h,[1]; figure 5,-75.3113
same,ME_72h,[1]; figure 5,19.8776
same,MCCE,[1]; RoK curve descriptor,0.2 µM
same,AM/CELL NORM,"[1]; Time 4, sheet figure 4 A",7.308
same,AM/CELL NORM,"[1]; Time 24, sheet figure 4 A",-56.5644
same,AM/CELL NORM,"[1]; Time 48, sheet figure 4 A",-75.3113
same,AM/CELL NORM,"[1]; Time 72, sheet figure 4 A",-31.1405
same,tlag_Cmax,[1],48.0 h
same,t50pct_Cmax,[1]; figure 5,72
same,tlag_Cmax,[1]; figure 5,48
same,t50pct_MCC50,"[1]; at MCC50, figure 5",72
same,tlag_MCC50,"[1]; at MCC50, figure 5",72
same,MCC50,[1]; figure 5,50 µM
same,MCCE,[1]; figure 5,0.2058
same,ME_24h (%),[1],-36.0%
same,ME_48h (%),[1],-75.3%
same,ME_72h (%),[1],19.9%
same,"ME 24h (maximum effect at 24 hours, intracellular amastigotes)",[1],-36.0217%
same,CYP51 pIC50,TcCYP51,8.1
